Results reported in patent EP2522332A1, “Use of resveratrol and magnesium-ascorbyl-phosphate” (DSM IP Assets B.V., priority 2011, dated 2012).
Like-named read-outs stand apart in the source and are kept apart here.

Test system: SILV
Assay: Assessment of gene modulation in normal human epidermal melanocytes (NHEM), RT-qPCR / PCR array
Format: cell-based
Conditions: for activation at 1000 µg/mL: Homo sapiens, Melanocyte
Protocol: Normal human epidermal melanocytes were cultivated for 24 hours. […] Cells were cultivated for additional 72 hours. All experimental conditions were performed in triplicate.
At the end of the cultivation, the cells were harvested and washed with phosphate buffered saline (PBS) solution and immediately frozen at -80°C. The expression of selected markers was analyzed using RT-qPCR method on mRNA extracted from cells layer for each treatment condition. The differential expression analysis was performed by PCR arrays of the screening format "mQPA H-Melanocyte-64", which focuses on 64 genes selected for their importance in pigmentation and melanocyte biology.
Total RNA was extracted from each sample using TRI-Reagent®. The amount and quality of the RNA was evaluated using a lab-on-a-chip Bioanalyzer (Agilent technologies). Potential contaminants traces of DNA were removed […] The incorporation of fluorescence in amplified DNA was measured continuously during the PCR cycles. […] The value selected for RE calculations is the "output point" (Ct) of the fluorescence curve. For a given marker, the highest is the cycle number; the lowest, is the mRNA quantity. The RE value is expressed in arbitrary units (AU) according to the equation: (((1)/(2)))^NC x 10^6 [formula]
Where NC is the number of cycles.

| Structure (SMILES) | modulation of the gene SILV (NHEM cells, resveratrol alone 5 micrograms/ml, 72 hours) | activation at 1000 µg/mL (NHEM cells treated 72 hours, resveratrol 5 µg/ml, magnesium-ascorbyl-phosphate 1 mg/ml, combination 5 µg/ml + 1 mg/ml, versus control, read-out: SILV (expression level of the gene SILV)) [%] | activation at 1000 µg/mL (NHEM cells, magnesium ascorbyl phosphate 1 mg/ml, 72 hours, read-out: induction of the SILV gene) [%] |
| --- | --- | --- | --- |
| Oc1ccc(C=Cc2cc(O)cc(O)c2)cc1 [Resveratrol, 3,4',5 trihydroxystilbene] | did not modulate |  |  |
| O=C1O[C@H]([C@@H](O)CO)C(O)=C1OP(=O)(O)O [magnesium-ascorbyl-phosphate, magnesium-L-ascorbyl-2-phosphate] |  | 25 | 25 |
